Results on two compounds are retold here after patent US20200223837A1, “BENZOFURAN AMIDES AND HETEROAROMATIC ANALOGUES THEREOF FOR USE IN THERAPY” (European Molecular Biology Laboratory, priority 2017, published 2020).

One series addresses T1, pirin (Homo sapiens, UniProt O00625).
T1 sequence (O00625 1-290): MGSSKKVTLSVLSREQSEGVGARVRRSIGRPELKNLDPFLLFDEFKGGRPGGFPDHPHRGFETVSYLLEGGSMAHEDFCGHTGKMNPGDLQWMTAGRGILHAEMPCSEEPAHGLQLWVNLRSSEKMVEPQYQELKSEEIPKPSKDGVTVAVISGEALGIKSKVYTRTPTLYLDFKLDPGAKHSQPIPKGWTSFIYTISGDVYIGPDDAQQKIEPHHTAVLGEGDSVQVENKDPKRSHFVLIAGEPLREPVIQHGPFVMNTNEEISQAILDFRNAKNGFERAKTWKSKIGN
Description: Nano differential scanning fluorimetry (NanoDSF), thermal melting of pirin. The following applies: 10 μM pirin in PBS, 20 μM test compound.

The next series can be described thus: Microsomal stability. The series is classed as in vitro ADME. To be noted: mouse liver microsomes, 2 μM test compound, 37° C. The protocol: Mouse hepatic microsomes were isolated from pooled (50), perfused livers of Balb/c male mice according to the standard protocol (Hill, J. R. in Current Protocols in Pharmacology 7.8.1-7.8.11, Wiley Interscience, 2003). The batch of microsomes was tested for quality control using Imipramine, Propranolol and Verapamil as reference compounds. Microsomal incubations were carried out in 96-well plates in 5 aliquots of 40 μL each (one for each time point). Liver microsomal incubation medium contained PBS (100 mM, pH 7.4), MgCl2 (3.3 mM), NADPH (3 mM), glucose-6-phosphate (5.3 mM), glucose-6-phosphate dehydrogenase (0.67 units/ml) with 0.42 mg of liver microsomal protein per ml. Control incubations were performed replacing the NADPH-cofactor system with PBS.
Test compound (2 μM, final solvent concentration 1.6%) is incubated with microsomes at 37° C., shaking at 100 rpm. Incubations are performed in duplicates. Five time points over 40 minutes are analyzed. The reactions are stopped by adding 12 volumes of 90% acetonitrile-water to incubation aliquots, followed by protein sedimentation by centrifuging at 5500 rpm for 3 minutes. Supernatants are analyzed using the HPLC system coupled with tandem mass spectrometer. The elimination constant (kel), half-life (t½) and intrinsic clearance (Clint) is determined in plot of In(AUC) versus time, using linear regression analysis.
In general terms: Liver microsomes are vesicles of endoplasmic reticulum, rich in cytochrome P450 enzymes.

In the next series the test system is EGR1 promoter. Description: EGR1 reporter assay (luciferase) in genomically engineered HeLa cell line. The following applies: Homo sapiens; EGR1 reporter HeLa cells, luciferase activity after 24 hours with compound. The format is cell-based. The essentials: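 HeLa cells with eGFP-P2A-luciferase knocked in by CRISPR behind the endogenous EGR1 promoter, seeded 2000/well in DMEM with 10% FCS for 24 h. Cells treated 24 h with an 11-point 1:3 series from 100 μM initial DMSO dilution. Readout: luciferase bioluminescence.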

In series [1] the test system is patient derived CLL samples. Description: Growth inhibition of cells derived from patients with CLL. The series is classed as cell-based. The following applies: 27 patient derived CLL isolates; for EC50: Homo sapiens, read-out: median EC50. The procedure:
HeLa, A549 and HCT116 cells were grown in high-glucose Dulbecco's Modified Eagle's Medium (DMEM, Sigma)+10% FBS+1% penicillin and streptomycin+1% L-glutamine, at 37° C. with 5% CO2 and 95% humidity. Cytotoxic screening of the ProQinase panel of 100 cell-lines was performed by ProQinase (Freiburg, Germany). Patient derived CLL isolates were prepared and screened as described by Dietrich et al. (S. Dietrich et al., J Clin Invest, 2018, 128(1), 427-445). Cell viability was determined after 48 hours using the ATP-based CellTiter Glo assay (Promega). Luminescence was measured with a Tecan Infinite F200 Microplate Reader (Tecan Group AG) and with an integration time of 0.2 seconds per well.
The response of 97 tumour samples derived from patients with CLL was investigated. All samples tumor cells were obtained from whole blood, subjected to Ficoll-Isopaque density centrifugation. CD19+B and CD3+ T cells were isolated by positive magnetic cell separation (Miltenyi Biotec). Sorted cells were checked for purity by fluorescence-activated cell sorting (FACS) with CD19/CD20 for healthy control samples and CD19/CD20/CD5 for CLL samples (BD Biosciences). Following sorting, all samples with a CD19/CD20/CD5 purity <98% were subjected to additional sorting, and the average final purity of all sorted samples was >99%. CLL samples with >[…] were not subject to purification.
Cells are incubated for three days with an eight-point three-fold titration series of the test compound from an initial concentration of 30 μM (2000 cells per well in a volume of 50 μl). Cellular viability is estimated by the addition of 25 μL of ATPlite (Perkin Elmer) with the resulting luminescence measured using an EnVision Xcite plate reader (Perkin Elmer).
In addition, the growth inhibitory response of a selection of 27 patient derived CLL isolates (S. Dietrich et al., J Clin Invest, 2018, 128(1), 427-445) against the compounds of examples 64 and 85 was evaluated using the procedure as described above.

Description for pirin: NanoDSF is an advanced Differential Scanning Fluorimetry method for measuring protein stability using intrinsic tryptophan or tyrosine fluorescence. The fluorescence of the tryptophans and tyrosines in a protein is strongly dependent on their close surroundings. Changes in protein structure typically affect both the intensity and the emission wavelength especially of tryptophan fluorescence. By measuring fluorescence intensity at 330 nm and 350 nm, the change in fluorescence intensity and the shift of the fluorescence maximum upon unfolding can be used to detect thermal melting of the protein. Proteins are stabilized when associated with ligands and show a shift in their melting temperatures. NanoDSF has the advantages of being label free and observing the protein in solution.
A 10 μM solution of pirin in phosphate buffered saline, with or without 20 μM test compound, is subject to thermal denaturation under fluorescence monitoring using a Prometheus NT.48 instrument of NanoTemper Technologies. Unliganded pirin has a complex biphasic melting curve. […] If the test compound is a ligand to pirin, it adopts a single thermal transition some 10° C. above that of apopirin.

Regarding `Cc1cnc(NC(=O)Cc2coc3cc4c(cc23)CCC4)s1` [Example 64, 2-(6,7-Dihydro-5H-cyclopenta[f]benzofuran-3-yl)-N-(5-methylthiazol-2-yl)acetamide], the “increase in the Tm of melting” value on pirin is “approximately 11 °C”. The same compound showed a microsomal stability in the series “Microsomal stability” of 10 min. For the same compound, in the series on EGR1 promoter, the EC50 was in the range of 0.01 to 10 µM. In series [1], the growth inhibitory response entry is given as “active against all isolates” and the EC50 came out at 6 µM.
The like results for `O=C(Cc1coc2c(Cl)c(Cl)ccc12)Nc1ncc(C(F)(F)F)s1` [Example 85, 2-(6,7-Dichlorobenzofuran-3-yl)-N-[5-(trifluoromethyl)thiazol-2-yl]acetamide] were, in that order, “approximately 11 °C”, 113 min, 0.01 to 10 µM, “active against all isolates” and 1.67 µM.

As usually defined, the EC50 is the concentration giving half of the maximal effect.
